According to patent US20240099295A1, “CELL TREATMENT AGENT” (AYA Inc., priority 2021, published 2024):

Legend:
Assay type in all cases: cell-based
[1] = system: Rat corneal epithelial cell; experiment: Cell protective effect: cell survival during preservation (trypan blue excretion test); conditions: for Average survival rate at 72 hours: refrigerator 4° C.; for Average survival rate at 24 hours: normal temperature (22° C.)
Protocol: Using a normal serum-free cell culture solution without FBS or a Ringer's solution (Otsuka Pharmaceutical Co., Ltd., Lactec Injection, Japanese Pharmacopoeia, Sodium L-lactate Ringer's solution) as a conditioning solution for use, for example, in preservation and transportation of cells, sodium alginate (Na alginate) (Fuji Chemical Industry Co., Ltd. Snow Algin SSL, viscosity of 1% aqueous solution is 30 mPa·s at 20° C.) was added to the conditioning solution in the concentrations shown in Table 1 to prepare cell preservation solutions. To each cell preservation solution, the above-described cells were added at a concentration of 10^6 cells/ml to satisfy the conditions shown in Table 1, and the resultant solution was left to stand in a room at normal temperature (22° C.) for 24 hours, and then whether cells were alive or dead was determined, and rates of viable cells (average survival rate (%)) were calculated and compared. Cell viability was determined by the trypan blue excretion test that is the ordinary method of confirming cell viability. The excretion test was performed according to the method described in “Denizot F., et al., Rapid colorimetric assay for cell growth and survival. Modifications to the tetrazolium dye procedure giving improved sensitivity and reliability. J. Immunol. Methods, 89, 271-277 (1986)”. The results are of N=4.
The average survival rate (%) was determined in the same manner as in Experimental Example (1-1-1) except that the preservation conditions were changed to leaving still for 72 hours in a refrigerator at a set temperature of 4° C. The results are of N=4.
The average survival rate (%) of cells was determined in the same manner as in Experimental Example (1-1-1) except that dextran sulfate (dextran sulfate special grade reagent available from NACALAI TESQUE, INC.) was used instead of sodium alginate and the conditions were as shown in Table 3. The results are of N=4.
The average survival rate (%) of cells was determined in the same manner as in Experimental Example (1-2-1) except that the preservation conditions were changed to leaving still for 72 hours in a refrigerator at a set temperature of 4° C. and to conditions shown in Table 4. The results are of N=3 in the case of using a serum-free cell culture solution, and are of N=4 in the case of using a Ringer's solution.
The average survival rate (%) of cells was determined in the same manner as in Experimental Example (1-1-1) except that heparin sodium (Heparin Na Mochida, unfractionated heparin, available from Mochida Pharmaceutical Co., Ltd.) was used instead of alginic acid and the conditions were as shown in Table 5. The results are of N=4.
The average survival rate (%) of cells was determined in the same manner as in Experimental Example (1-3-1) except that the preservation conditions were changed to leaving still for 72 hours in a refrigerator at a set temperature of 4° C. and to conditions shown in Table 6. The results are of N=4.
The average survival rate (%) of cells was determined in the same manner as in Experimental Example (1-3-2) except that urinastatin (Miraclid injection solution, containing 2.5 million units, available from Mochida Pharmaceutical Co., Ltd.) was used as a proteolytic enzyme inhibitor instead of heparin sodium and the conditions were as shown in Table 7. The results are of N=4. “Unit (U)” in the unit of concentration (units/mL) of inhibitor a in Table 7 can be measured, for example, by the quantitative method of urinastatin in the Japanese Pharmacopoeia 15th revision. Specifically, absorbance at 405 nm of a sample solution is measured with a UV 240 spectrophotometer, and concentration of urinastatin can be calculated from a calibration curve prepared in advance. […]

[2] = system: rat corneal epithelial cells; experiment: Cell detaching and suspending effect (Experimental Example 4)
Protocol: A culture solution in which FBS was added to a normal serum-free cell culture solution in a concentration of 10% (10% FBS cell culture solution) was prepared in a culture dish. To this, rat corneal epithelial cells were added at 10^6 cells/ml and cultured for 24 hours under normal cell culture conditions (37° C., CO2 concentration of 5%, humidity of 100%) to make the cultured cells fully adhere to the culture dish wall which is a scaffold.
The culture solution in the culture dish on which cultured cells obtained as described above had adhered was replaced with each of dextran sulfate aqueous solutions and a dextran aqueous solution, which are respectively obtained by dissolving dextran sulfate (Dextran sodium sulfate MW 36000-50000, available from FUJIFILM Wako Pure Chemical Corporation) and dextran (Dextran MW 35000-50000, available from FUJIFILM Wako Pure Chemical Corporation) in purified water and have concentrations shown in Table 13, and the resultant culture solutions were continuously cultured under normal cell culture conditions (37° C., CO2 concentration of 5%, humidity of 100%). For each adherent cell, detachment and suspension of adherent cells from the dish wall was observed over time. For determination of detachment and suspension, the culture dish was gently shaken manually to observe whether the cells were detached from the dish wall and suspended, and the case where 90% or more of the cells were detached and suspended was determined as detachment and suspension of adherent cells. The results are of N=4. In Table 13, “∘” means that the cells were detached and suspended, and “x” means that the cells were not detached and suspended.

[3] = system: Chinese hamster fibroblasts; experiment: as above; conditions: same experiment as Table 13 with Chinese hamster fibroblasts

dextran sulfate [DS]
Average survival rate at 72 hours ([1]; DS 0.003 mg/mL, Ringer's solution): 67%
Average survival rate at 24 hours ([1]; DS 0.003 mg/mL, serum-free cell culture solution): 62%
Average survival rate at 72 hours ([1]; DS 0.003 mg/mL, serum-free cell culture solution, N=3): 76%
Average survival rate at 72 hours ([1]; DS 0.1 mg/mL, Ringer's solution): 71%
Average survival rate at 24 hours ([1]; DS 0.1 mg/mL, serum-free cell culture solution): 71%
Average survival rate at 72 hours ([1]; DS 0.1 mg/mL, serum-free cell culture solution, N=3): 79%
Average survival rate at 72 hours ([1]; DS 1 mg/mL, Ringer's solution): 60%
Average survival rate at 24 hours ([1]; DS 1 mg/mL, serum-free cell culture solution): 73%
Average survival rate at 72 hours ([1]; DS 1 mg/mL, serum-free cell culture solution, N=3): 73%
Detachment and suspension of adherent cells by lapse time after replacement (hour) ([2]; DS 0.1 mg/mL aqueous solution (MW 36000-50000), later lapse times up to 48 h, span not shown): ∘ (“∘” means that the cells were detached and suspended)
Detachment and suspension of adherent cells by lapse time after replacement (hour) ([2]; DS 0.1 mg/mL aqueous solution (MW 36000-50000), starts at <12 h): x (“x” means that the cells were not detached and suspended)
Detachment and suspension of adherent cells by lapse time after replacement (hour) ([2]; DS 1 mg/mL aqueous solution (MW 36000-50000), later lapse times up to 48 h, span not shown): ∘ (“∘” means that the cells were detached and suspended)
Detachment and suspension of adherent cells by lapse time after replacement (hour) ([2]; DS 1 mg/mL aqueous solution (MW 36000-50000), starts at <12 h): x (“x” means that the cells were not detached and suspended)
Detachment and suspension of adherent cells by lapse time after replacement (hour) ([2]; DS 10 mg/mL aqueous solution (MW 36000-50000), later lapse times up to 48 h, span not shown): ∘ (“∘” means that the cells were detached and suspended)
Detachment and suspension of adherent cells by lapse time after replacement (hour) ([2]; DS 10 mg/mL aqueous solution (MW 36000-50000), starts at <12 h): x (“x” means that the cells were not detached and suspended)
Detachment and suspension of adherent cells [3]: equivalent results were obtained

heparin sodium [Heparin Na, reference compound]
Average survival rate at 72 hours ([1]; Heparin Na 5 units/mL, Ringer's solution): 70%
Average survival rate at 24 hours ([1]; Heparin Na 5 units/mL, serum-free cell culture solution): 69%
Average survival rate at 72 hours ([1]; Heparin Na 25 units/mL, Ringer's solution): 72%
Average survival rate at 24 hours ([1]; Heparin Na 25 units/mL, serum-free cell culture solution): 75%
Average survival rate at 72 hours ([1]; Heparin Na 125 units/mL, Ringer's solution): 74%
Average survival rate at 24 hours ([1]; Heparin Na 125 units/mL, serum-free cell culture solution): 76%
